Tests used:
Assay in all cases: normalised response (% of control), CellTox Green; higher = less cell death (100 = DMSO, 0 = benzethonium chloride kill control)
Details in all cases: incubation time: 72 h
MDA-MB-468 = tested on: MDA-MB-468
Method in brief: (§1)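 A 20 µl suspension of breast cancer cells was seeded into each well of 384-well plates containing compound at 5 concentrations in 10-fold steps over a compound-specific 10,000-fold range. After 72 h incubation, CellTox Green fluorescence (485/520 nm) was read first, and CellTiter-Glo luminescence was read after 10 min at room temperature. Each plate was normalised against 0.1 % DMSO (100) and a positive kill control (0), and each value is the normalised signal at one concentration.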

MDA-MB-231 = tested on: MDA-MB-231
Method in brief: as §1

BT-549 = tested on: BT-549
Method in brief: as §1

MFM-223 = tested on: MFM-223
Method in brief: as §1

MCF-10A = tested on: MCF-10A
Method in brief: as §1

HCC1937 = tested on: HCC1937
Method in brief: as §1

CAL-85-1 = tested on: CAL-85-1
Method in brief: as §1

CAL-120 = tested on: CAL-120
Method in brief: as §1

CAL-51 = tested on: CAL-51
Method in brief: as §1

Hs578T = tested on: Hs578T
Method in brief: as §1

BT-474 = tested on: BT-474
Method in brief: as §1

HCC1143 = tested on: HCC1143
Method in brief: as §1

MDA-MB-436 = tested on: MDA-MB-436
Method in brief: as §1

DU-4475 = tested on: DU-4475
Method in brief: as §1

HDQ-P1 = tested on: HDQ-P1
Method in brief: as §1

MDA-MB-453 = tested on: MDA-MB-453
Method in brief: as §1

| Compound | normalised response (MDA-MB-468) | normalised response (MDA-MB-231) | normalised response (BT-549) | normalised response (MFM-223) | normalised response (MCF-10A) | normalised response (HCC1937) | normalised response (CAL-85-1) | normalised response (CAL-120) | normalised response (CAL-51) | normalised response (Hs578T) | normalised response (BT-474) | normalised response (HCC1143) | normalised response (MDA-MB-436) | normalised response (DU-4475) | normalised response (HDQ-P1) | normalised response (MDA-MB-453) |
| --- | --- | --- | --- | --- | --- | --- | --- | --- | --- | --- | --- | --- | --- | --- | --- | --- |
| COc1ccc(S(=O)(=O)Nc2cccnc2Nc2ccc(O)cc2)cc1 [ABT-751] (1000 nM) | -16.6% | 53.4% | 40.4% | 83.6% | 81.3% | -57.9% | 35.1% | 87.2% | 110% | 78.8% | 86.1% | 98.9% | 57.2% | 93.9% | 90.5% | 102% |
| CO[C@@]12[C@H](COC(N)=O)C3=C(C(=O)C(C)=C(N)C3=O)N1C[C@@H]1N[C@@H]12 [Mitomycin C] (10000 nM) | 5.66% | 101% | 99.5% |  | 85.4% | 108% | 102% | 98.4% | -36.9% | 77.6% | 101% | 36.6% | 90.2% | 94.7% | 71.8% | 104% |
| CC(C)(C)NC(=O)[C@H]1CC[C@H]2[C@@H]3CC[C@H]4NC(=O)C=C[C@]4(C)[C@H]3CC[C@]12C [Finasteride] (1000 nM) | 145% | 107% | 109% | 93.2% | 91.2% | 116% | 107% | 99.4% | 107% | 107% | 99.4% | 96.8% | 102% | 103% | 113% | 105% |
| Cc1cn(-c2cc(NC(=O)c3ccc(C)c(Nc4nccc(-c5cccnc5)n4)c3)cc(C(F)(F)F)c2)cn1 [Nilotinib] (10000 nM) | 117% | 84.3% | 80.7% | 104% | 98.3% | 93.1% | 88.6% | 101% | 92.6% | 64.7% | 100% | 104% | 108% | 103% | 108% | 102% |
| O=C(CCCCCCC(=O)Nc1ccccc1)NO [Vorinostat] (10000 nM) | 25.7% | -55.1% | 74.8% | 80.3% | 98.4% | 84.3% | 51.7% | 36.3% | -6.76% | 60.6% | 32.6% | 42.1% | 77.5% | 76% | 103% | 82.7% |
| CCNC(=O)c1noc(-c2cc(C(C)C)c(O)cc2O)c1-c1ccc(CN2CCOCC2)cc1 [NVP-AUY922] (1000 nM) | 112% | 52.9% | 117% | 98.3% | 39.3% | 48.9% | 37.6% | 88.4% | 48.1% | -31.9% | 55.9% | 74.2% | 107% | 72.5% | 68.8% | 89% |
| CNC(=O)c1ccccc1Sc1ccc2c(/C=C/c3ccccn3)n[nH]c2c1 [Axitinib] (10000 nM) | 156% | 96.8% | 90.9% | 97.7% | 93.8% | 91.2% | 75.7% | 92.5% | 40.2% | 119% | 99.4% | 103% | 89% | 108% | 58.1% | 111% |
| C=CCn1c(=O)c2cnc(Nc3ccc(N4CCN(C)CC4)cc3)nc2n1-c1cccc(C(C)(C)O)n1 [MK1775] (1000 nM) | 56.5% | -98.4% | 74.9% | 68.5% | 64.5% | 103% | 25.9% | 79.1% | 17.8% | 71.9% | 68.6% | 103% | 29.9% | 87% | 48.7% | 93.3% |
| COc1cc(Nc2c(C#N)cnc3cc(OCCCN4CCN(C)CC4)c(OC)cc23)c(Cl)cc1Cl [Bosutinib] (10000 nM) | -35% | -62.9% | 33.1% | 81.3% | -50.5% | 32.9% | -81.2% | 65.6% | 38.5% | 72.5% | 19.3% | 99.6% | 25.9% | 86.5% | 31.8% | 34.6% |
| Cc1cn(-c2cc(NC(=O)c3ccc(C)c(Nc4nccc(-c5cccnc5)n4)c3)cc(C(F)(F)F)c2)cn1 [Nilotinib] (1000 nM) | 111% | 68.5% | 85.9% | 103% | 107% | 131% | 101% | 97% | 86.3% | 104% | 88.8% | 91.8% | 82.2% | 101% | 79.2% | 106% |
| CNC(=O)c1ccccc1Sc1ccc2c(/C=C/c3ccccn3)n[nH]c2c1 [Axitinib] (1000 nM) | 129% | 121% | 146% | 66.7% | 97.6% | 122% | 104% | 96.4% | 76% | 115% | 103% | 51.8% | 84.9% | 104% | 102% | 108% |
| CC1(C)CCC(c2ccc(Cl)cc2)=C(CN2CCN(c3ccc(C(=O)NS(=O)(=O)c4ccc(N[C@H](CCN5CCOCC5)CSc5ccccc5)c(S(=O)(=O)C(F)(F)F)c4)cc3)CC2)C1 [Navitoclax] (10000 nM) | 24.9% | -60.4% | 97.3% | 66.2% | 60.6% | 69.4% | 76.8% | 13.6% | 31.9% | 101% | 70.3% | 113% | 64.8% | 89.8% | -0.28% | 86.5% |
| CO[C@@H]1[C@H](N(C)C(=O)c2ccccc2)C[C@H]2O[C@]1(C)n1c3ccccc3c3c4c(c5c6ccccc6n2c5c31)C(=O)NC4 [Midostaurin] (10000 nM) | 0.55% | 60.6% | 25.2% | 93.1% | 93.3% | 91.9% | 97.5% | 80.8% | -24.3% | 21.1% | 87.9% | 91.4% | 83.6% | 88.6% | 55.3% | 91.6% |
| C=CCn1c(=O)c2cnc(Nc3ccc(N4CCN(C)CC4)cc3)nc2n1-c1cccc(C(C)(C)O)n1 [MK1775] (10000 nM) | 45% | -15.5% | 14.7% | 67.2% | -5.92% | 65.6% | 4.99% | 53.2% | 41.9% | 33.3% | 44.8% | 14.8% | 67.1% | 85.3% | 40.5% | 89.7% |
| CC(C)C[C@H](NC(=O)[C@@H](COC(C)(C)C)NC(=O)[C@H](Cc1ccc(O)cc1)NC(=O)[C@H](CO)NC(=O)[C@H](Cc1c[nH]c2ccccc12)NC(=O)[C@H](Cc1cnc[nH]1)NC(=O)[C@@H]1CCC(=O)N1)C(=O)N[C@@H](CCCNC(=N)N)C(=O)N1CCC[C@H]1C(=O)NNC(N)=O [Goserelin] (1000 nM) | 158% |  | 124% | 83.2% |  | 83.8% | 106% | 102% | 105% | 102% | 99.8% | 112% | 92.4% | 96.9% | 107% | 107% |
| Nc1ccn([C@@H]2O[C@H](CO)[C@@H](O)C2(F)F)c(=O)n1 [Gemcitabine] (100 nM) | 28.4% | 101% | 95% | 101% | 94.5% | 89% | 87.8% | 100% | 32.1% | 103% | 98.1% | 111% | 58.6% | 98.8% | 87.8% | 110% |
| Nc1ccn([C@@H]2O[C@H](CO)[C@@H](O)C2(F)F)c(=O)n1 [Gemcitabine] (1000 nM) | 122% | 75.5% | 88.8% | 104% | 90.5% | 108% | 73% | 96.3% | 55.1% | 123% | 104% | 103% | 89.8% | 96.9% | 108% | 97.7% |
| CCNC(=O)CCC/C=C\C[C@@H]1[C@@H](/C=C/[C@@H](O)CCc2ccccc2)[C@H](O)C[C@@H]1O [Bimatoprost] (550 nM) | 69% | 88.8% | 73.3% | 103% | 108% | 129% | 93.9% | 97.7% | 106% | 97.8% | 98.5% | 105% | 67.2% | 97.2% | 66.3% | 99.3% |
| CC(=O)[C@]1(O)Cc2c(O)c3c(c(O)c2[C@@H](O[C@H]2C[C@H](N)[C@H](O)[C@H](C)O2)C1)C(=O)c1ccccc1C3=O [Idarubicin] (1000 nM) | 18.9% | 77.7% | 84.2% | 37.8% | 34.9% | 113% | -10.6% | 55.6% | -13.1% | 84% | 65.2% | 110% | 83.7% | 81.7% | 85.6% | 106% |
| COc1cc(Nc2c(C#N)cnc3cc(OCCCN4CCN(C)CC4)c(OC)cc23)c(Cl)cc1Cl [Bosutinib] (1000 nM) | 164% | 93.6% | 106% |  | 93.7% | 110% | 93.7% | 104% | 84.4% | 78% | 94.2% | 116% | 107% | 101% | 93.3% | 114% |
| COc1ccc(S(=O)(=O)Nc2cccnc2Nc2ccc(O)cc2)cc1 [ABT-751] (10000 nM) | 112% | 46.2% | 77.8% | 35.7% | 42.6% | 108% | 50.8% | 92% | 32.5% | 29.5% | 67.4% | 121% | 63.9% | 107% | 107% | 97% |
| CCNC(=O)c1noc(-c2cc(C(C)C)c(O)cc2O)c1-c1ccc(CN2CCOCC2)cc1 [NVP-AUY922] (100 nM) | 31.9% | 46.7% | 140% | 78.3% | 57.5% | 125% | 63.1% | 90.3% | 64.1% | 102% | 80% | 87.9% | 67.1% | 65.5% | 62.8% | 96.2% |
| CC1(C)CCC(c2ccc(Cl)cc2)=C(CN2CCN(c3ccc(C(=O)NS(=O)(=O)c4ccc(N[C@H](CCN5CCOCC5)CSc5ccccc5)c(S(=O)(=O)C(F)(F)F)c4)cc3)CC2)C1 [Navitoclax] (1000 nM) | 84.7% | -19.3% | 95.6% | 95.8% |  | 92.8% | 79.3% | 50.3% | 60.1% | 84.3% | 89.1% | 92.9% | 101% | 90.2% | 54.7% | 99.8% |

— the supplement of paper PMC4862054
